# Values quoted from earlier work as cited in publication PMC8436411 (ACS Medicinal Chemistry Letters, 2021).
# Columns and labels:
# S. aureus (ATCC 29213) = conditions: Table S3; ref 10 (SI); cited from earlier work
# E. coli (ATCC 25922) = conditions: Table S3; ref 10 (SI); cited from earlier work
# E. coli D22 = conditions: Table S3; mutation in the lpxC gene that increases membrane permeability; ref 10 (SI); cited from earlier work
# [1] = system: E. coli N43 (CGSC no. 5583); conditions: Table S3; AcrA knockout strain; ref 10 (SI); cited from earlier work
# MRSA (QA-11.7) = conditions: Table S3; ref 10 (SI); cited from earlier work
# [2] = system: Salmonella alachua RDK 030c (QA-1482/04); conditions: Table S3; ref 10 (SI); cited from earlier work
# [3] = system: Pseudomonas aeruginosa RDK 184 (DSM 939); conditions: cited from earlier work; for MIC P. aeruginosa RDK 184 (DSM 939): Table S3, ref 10 (SI)
# [4] = system: Streptococcus agalactiae RDK 047 (QA-990/02); conditions: Table S3; ref 10 (SI); cited from earlier work
# [5] = system: Enterococcus faecalis DRK 057 (ATCC 29212); conditions: Table S3; ref 10 (SI); cited from earlier work
SMILES,MIC S. aureus (ATCC 29213) (S. aureus (ATCC 29213)),MIC E. coli (ATCC 25922) (E. coli (ATCC 25922)),MIC E. coli D2 (E. coli D22),MIC E. coli N43 (CGSC# 5583) [1],MIC MRSA (QA-11.7) (MRSA (QA-11.7)),MIC S. alachua RDK 030c (QA-1482/04) [2],MIC P. aeruginosa RDK 184 (DSM 939) [3],MIC Pseudomonas aeruginosa RDK 184 (DSM 939) [3],MIC S. agalactiae RDK 047 (QA-990/02) [4],MIC E. faecalis DRK 057 (ATCC 29212) [5]
COc1ccc2nccc(CCN3CCC(NCc4ccc(Cl)cc4)CC3)c2n1 [Compound 1],0.304 µM,9.73 µM,4.87 µM,1.22 µM,1.22 µM,77.9 µM,> 311 µM,>128 µg/mL,2.43 µM,2.43 µM
COc1ccc2nccc(CCN3CCC(NCc4ccc(Br)cc4)CC3)c2n1 [Compound 2],0.068 µM,4.39 µM,0.274 µM,0.274 µM,0.136 µM,35.1 µM,281 µM,,1.098 µM,2.20 µM
